Converted amounts (≈) assume the structure as drawn. Like-named read-outs stand apart in the source and are kept apart here.
Columns and labels:
M. abscessus ATCC 19977 = assay: MIC, resazurin microtiter assay; assay type: cell-based; conditions: Mueller Hinton II; for MIC: Mycobacteroides abscessus, ATCC19977, read-out: MIC M. abscessus ATCC 19977
M. abscessus DCI #21 = assay: MIC, resazurin microtiter assay; assay type: cell-based; conditions: for MIC: Mycobacteroides abscessus, read-out: MIC M. abscessus DCI #21
[1] = test system: M. massiliense CIP 108297; assay: MIC, resazurin microtiter assay; assay type: cell-based; conditions: for MIC: Mycobacteroides abscessus, CIP108297, Mueller Hinton II, read-out: MIC M. massiliense CIP 108297
M. massiliense CRM 0019 = assay: MIC, resazurin microtiter assay; assay type: cell-based; conditions: for MIC: Mycobacteroides abscessus, CRM0019, Mueller Hinton II, read-out: MIC M. massiliense CRM 0019
M. bolletii ATCC 14472 = assay: MIC, resazurin microtiter assay; assay type: cell-based; conditions: for MIC: Mycobacteroides abscessus, ATCC14472, Mueller Hinton II, read-out: MIC M. bolletii ATCC 14472
M. chelonae ATCC 35752 = assay: MIC, resazurin microtiter assay; assay type: cell-based; conditions: for MIC: Mycobacteroides chelonae, ATCC35752, Mueller Hinton II, read-out: MIC M. chelonae ATCC 35752
M. smegmatis mc^2155 = assay: MIC, resazurin microtiter assay; assay type: cell-based; conditions: for MIC: Mycolicibacterium smegmatis, MC^2155, 7H9-ADC-0.05% Tween 80, read-out: MIC M. smeg. mc^2155
M. avium 104 = assay: MIC, resazurin microtiter assay; assay type: cell-based; conditions: Mueller Hinton II; for MIC: Mycobacterium avium, 104, read-out: MIC M. avium 104
M. intracellulare 1956 = assay: MIC, resazurin microtiter assay; assay type: cell-based; conditions: Mueller Hinton II; for MIC: read-out: MIC M. avium Intracellulare 1956
M. xenopi WT = assay: MIC, resazurin microtiter assay; assay type: cell-based; conditions: Mueller Hinton II; for MIC: Mycobacterium xenopi, read-out: MIC M. xenopi WT
P. aeruginosa PAO-1 = assay: MIC, resazurin microtiter assay; assay type: cell-based, Pseudomonas aeruginosa; conditions: Mueller Hinton II; for MIC: Pseudomonas aeruginosa, PAO1, read-out: MIC P. aeruginosa PAO-1
S. aureus ATCC25923 = assay: MIC, resazurin microtiter assay; assay type: cell-based; conditions: Staphylococcus aureus, ATCC25923; Mueller Hinton II; read-out: MIC S. aureus ATCC25923
mycobacteria = assay: organism not typed; assay type: cell-based; conditions: lowest concentration reducing CFU by 90% relative to the inoculum; strain not stated; read-out: MBC90
M. abscessus 103 [2] = assay: MIC/MBC by microbroth dilution (MH or 7H9 broth); assay type: cell-based, M. abscessus subsp. bolletii; conditions: Mycobacteroides abscessus, 103; for MBC: 7H9 broth, read-out: MBC99 M. abscessus subsp. bolletii 103
M. abscessus 1513 = assay: MIC/MBC by microbroth dilution (MH or 7H9 broth); assay type: cell-based, M. abscessus subsp. abscessus; conditions: Mycobacteroides abscessus, 1513; for MBC: 7H9 broth, read-out: MBC99 M. abscessus subsp. abscessus 1513
M. abscessus 103 [3] = assay: Acute SCID mouse infection efficacy model; conditions: SCID mice i.v. infected with M. abscessus 103; compounds 300 mg/kg PO in 20% cyclodextrin, AMI 150 mg/kg SQ, once daily 8 days
[4] = test system: M. tuberculosis H37Rv mc^26206; assay: microbe, parasite or virus in culture; assay type: cell-based; conditions: TD50 in THP-1 cells
THP-1 cells = assay: Cytotoxicity assay, THP-1 cell viability (CellTiter-Glo); assay type: cell-based, human; conditions: 3 days
Method: The cytotoxicity of compounds was determined by measuring THP-1 cell viability after 3 days in the presence of test compounds. Compounds were prepared as 10-point serial dilutions in DMSO. The highest concentration of compound tested was 50 μM where compounds were soluble in DMSO at 10 mM. THP-1 cells were cultured in complete RPMI and differentiated into macrophage-like cells using 80 nM PMA overnight at 37° C., 5% CO2. Cells were inoculated into assay plates and cultured for 24 h before compound dilutions were added to a final DMSO concentration of 0.5%. Each run included staurosporine as a control. Assay plates were incubated for 3 days at 37° C., 5% CO2, growth was measured using the CellTiter-Glo® Luminescent Cell Viability Assay (Promega) which uses ATP as an indicator of cell viability. Relative luminescent units (RLU) were measured using a Biotek Synergy 4 plate reader. The dose response curve was fitted using the Levenberg-Marquardt algorithm.

[5] = test system: M. massiliense strain 1513; assay: Metabolic labeling and mycolic acid analysis; conditions: 4x and 10x MIC, 16 hr, [1,2-14C]acetate labeling, TLC
Method: Cultures of M. massiliense 1513 grown to mid log-phase in Mueller-Hinton II broth were incubated with different concentrations of inhibitors for 16 hr at 37° C. with shaking. 0.5 μCi/mL [1,2-^14C]acetic acid (specific activity, 52 Ci/mol, PerkinElmer Inc.) was added at the same time as the inhibitors. Total lipids and cell wall-bound mycolic acid methyl esters were prepared from treated and untreated cells and analyzed by TLC as described in Grzegorzewicz et al, Nature Chemical Biology, 2012, 8:334+341.

[6] = read-out: MIC M. abscessus 103, 7H9 Broth
[7] = read-out: MIC M. abscessus 103, MH Broth
[8] = read-out: MIC M. abscessus 1513, 7H9 Broth
[9] = read-out: MIC M. abscessus 1513, MH Broth

Compound	MIC P. aeruginosa PAO-1 (P. aeruginosa PAO-1)	MIC (P. aeruginosa PAO-1) [µg/mL]	MIC (S. aureus ATCC25923) [µg/mL]	MBC (mycobacteria) [µg/mL]	MIC (M. abscessus ATCC 19977) [µg/mL]	MIC (M. abscessus DCI #21; Mueller Hinton II) [µg/mL]	MIC [1] [µg/mL]	MIC (M. massiliense CRM 0019) [µg/mL]	MIC (M. bolletii ATCC 14472) [µg/mL]	MIC (M. chelonae ATCC 35752) [µg/mL]	MIC (M. smegmatis mc^2155) [µg/mL]	MIC (M. avium 104) [µg/mL]	MIC (M. intracellulare 1956) [µg/mL]	MIC (M. xenopi WT) [µg/mL]	MBC (M. abscessus 103 [2]) [µg/mL]	MIC (M. abscessus 103 [2]; [6]) [µg/mL]	MIC (M. abscessus 103 [2]; [7]) [µg/mL]	MBC (M. abscessus 1513) [µg/mL]	MIC (M. abscessus 1513; [8]) [µg/mL]	MIC (M. abscessus 1513; [9]) [µg/mL]	also measured
Cc1cc(C)c2cc(C(=O)NC3CCC(C)CC3)[nH]c2c1 (stereo not shown) [Compound 30, N-4-methylcyclohexyl-4,6-dimethyl-1H-indole-2-carboxamide]	inactive	> 160	> 160	0.03 (≈ 0.105 µM)																	MIC M. abscessus ATCC 19977 (M. abscessus ATCC 19977): ≤0.06 µg/mL; MIC M. abscessus DCI #21 (M. abscessus DCI #21; Mueller Hinton II): ≤0.06 µg/mL; MIC M. massiliense CIP 108297 ([1]; Mueller Hinton II): ≤0.06 µg/mL; MIC M. massiliense CRM 0019 (M. massiliense CRM 0019; Mueller Hinton II): ≤0.06 µg/mL; MIC M. bolletii ATCC 14472 (M. bolletii ATCC 14472; Mueller Hinton II): ≤0.06 µg/mL; MIC M. chelonae ATCC 35752 (M. chelonae ATCC 35752; Mueller Hinton II): ≤0.06 µg/mL; MIC M. smeg. mc^2155 (M. smegmatis mc^2155; 7H9-ADC-0.05% Tween 80): >20 µg/mL; MIC M. avium 104 (M. avium 104): >32 µg/mL; MIC M. avium Intracellulare 1956 (M. intracellulare 1956): >32 µg/mL; MIC M. xenopi WT (M. xenopi WT): 0.5 to 1 µg/mL
Cc1cc(C)c2cc(C(=O)NC3CCCCCC3)[nH]c2c1 [Compound 26, N-cycloheptyl-4,6-dimethyl-1H-indole-2-carboxamide]	inactive	> 160	> 160	0.015 (≈ 0.0527 µM)	≤ 0.06	≤ 0.06	≤ 0.06	≤ 0.06	≤ 0.06	≤ 0.06	0.625 (≈ 2.2 µM)	2 (≈ 7.03 µM)	4 (≈ 14.1 µM)	0.06 to 0.12 (≈ 0.211 to 0.422 µM)							
NCC[C@H](O)C(=O)N[C@@H]1C[C@H](N)[C@@H](O[C@H]2O[C@H](CN)[C@@H](O)[C@H](O)[C@H]2O)[C@H](O)[C@H]1O[C@H]1O[C@H](CO)[C@@H](O)[C@H](N)[C@H]1O [amikacin, reference compound]															> 64	8 (≈ 13.7 µM)	4 (≈ 6.83 µM)	> 64	> 64	> 64	log10 CFU liver counts on day 12 (M. abscessus 103 [3]): 4.03±0.62 log10 CFU; log10 CFU lung counts on day 12 (M. abscessus 103 [3]): 3.52±0.22 log10 CFU; log10 CFU spleen counts on day 12 (M. abscessus 103 [3]): 3.12±0.30 log10 CFU
Cc1cc(C)c2cc(C(=O)N[C@@H]3C[C@@H]4C[C@H]([C@H]3C)C4(C)C)[nH]c2c1 [Compound 31, N-((1R,2R,3R,5S)-2,6,6-trimethylbicyclo[3.1.1]heptan-3-yl)-4,6-dimethyl-1H-indole-2-carboxamide]	inactive	> 160	> 160		0.125 (≈ 0.385 µM)	0.125 (≈ 0.385 µM)	0.125 (≈ 0.385 µM)	0.125 (≈ 0.385 µM)	0.125 (≈ 0.385 µM)	0.125 (≈ 0.385 µM)	1.25 to 2.5 (≈ 3.85 to 7.7 µM)	2 (≈ 6.16 µM)	2 (≈ 6.16 µM)	0.25 to 1 (≈ 0.77 to 3.08 µM)		> 64	16 (≈ 49.3 µM)		> 64	> 64	Selectivity Index (TD50/MIC) M. abscessus DCI #21 (M. abscessus DCI #21; TD50 in THP-1 cells): >130; Selectivity Index (TD50/MIC) M. Massiliense CRM0019 (M. massiliense CRM 0019; TD50 in THP-1 cells): >130; Selectivity Index (TD50/MIC) M. bolletii (M. bolletii ATCC 14472; TD50 in THP-1 cells): >130; Selectivity index (TD50/MIC) (M. chelonae ATCC 35752; TD50 in THP-1 cells): >130; Selectivity Index (TD50/MIC) M. tb H37Rv [4]: >830; TD50 (THP-1 cells): >16.2 µg/mL; TMM build-up and mycolic acid transfer onto arabinogalactan and TDM [5]: concentration-dependent build-up of TMM
CC[C@H]1OC(=O)[C@H](C)[C@@H](O[C@H]2C[C@@](C)(OC)[C@@H](O)[C@H](C)O2)[C@H](C)[C@@H](O[C@@H]2O[C@H](C)C[C@H](N(C)C)[C@H]2O)[C@](C)(OC)C[C@@H](C)C(=O)[C@H](C)[C@@H](O)[C@]1(C)O [clarithromycin, reference compound]															> 64	16 (≈ 21.4 µM)	4 (≈ 5.35 µM)	> 64	> 64	> 64	
